Data: patent US20250042922A1, “KRAS MODULATING COMPOUNDS” (priority 2023, published 2025)

How the values were obtained:
[1] = test system: cellular pERK in Kuramochi (WT KRAS) cells; experiment: Cell based pERK assay, Kuramochi; details: Kuramochi (WT KRAS), 2 hours incubation, HTRF phospho-ERK1/2; read-out: Kuramochi pERK EC50
Procedure: (§1) Compounds were tested in a 384-well assay format for their ability to inhibit cellular pERK in Kuramochi (WT KRAS), MIA-PaCa-2 (KRAS-G12C), ASPC-1 (KRAS G12D), and NCI-H441 (KRAS-G12V) cell-lines. Compounds were serially diluted (1:3) in DMSO. On day −1, 80 μL of cells were plated per well in the 384 well tissue-culture plates (Greiner: Cat #781080) to seed 5000 cells per wells of AsPC-1 or 7500 cells of MIA-PaCa-2, NCI-H441, and Kuramochi cell lines in RPMI (Corning: Cat #10-040-CM) with 10% fetal bovine serum (FBS) (HyClone: Cat #SH30071-03) and 1× penicillin-streptomycin-glutamate (PSG) (Corning: Cat #30-009-CI) for […] and Kuramochi cell lines and DMEM (Corning: Cat #15-018-CM) with 10% FBS and 1×PSG for MIA-PaCa-2 cell line. The plates were then incubated overnight at 37° C. and 5% CO2. On day 0, 400 nL of compound/well was added into the cell plates and mixed 5 times by pipetting using a Beckmann Biomek FX. The cell plates were then incubated for 2 hours at 37° C. and 5% CO2. HTRF Advanced Phospho-ERK1/2 (THR202/TYR204) Detection Kits (PerkinElmer: Cat #64AERPEG) were used to prepare the lysis and detection solution according to manufacturer protocol. Following the 2 hour incubation, 70 μL of medium was aspirated from the plates and 10 uL of lysis and detection solution was added to the plates using a Biotek EL406 washer and dispenser. Plates were sealed and stored overnight at room temperature. HTRF ratio (665 nm/615 nm) was read by Envision multimode reader (PerkinElmer) the next day. The TR-FRET ratios were normalized to a positive (saturating concentration of known inhibitor) and negative (DMSO) control and plotted against the log of compound concentration.

[2] = test system: cellular pERK in ASPC-1 (KRAS G12D) cells; experiment: Cell based pERK assay, ASPC-1; details: Homo sapiens, ASPC1; ASPC-1 (KRAS G12D), 2 hours incubation, HTRF phospho-ERK1/2; read-out: AsPC1 pERK EC50
Procedure: as §1

[3] = test system: cellular pERK in NCI-H441 (KRAS-G12V) cells; experiment: Cell based pERK assay, NCI-H441; details: Homo sapiens; NCI-H441 (KRAS-G12V), 2 hours incubation, HTRF phospho-ERK1/2; read-out: H441 PERK EC50
Procedure: as §1

[4] = test system: cellular pERK in MIA-PaCa-2 (KRAS-G12C) cells; experiment: Cell based pERK assay, MIA-PaCa-2; details: Homo sapiens; MIA-PaCa-2 (KRAS-G12C), 2 hours incubation, HTRF phospho-ERK1/2; read-out: MIAPaCa2 pERK EC50
Procedure: as §1

Compound	EC50 [1]	EC50 [2]	EC50 [3]	EC50 [4]
C#Cc1c(F)ccc2cc(O)cc(-c3nc4c5c(nc(OC[C@@]67CCCN6C[C@H](F)C7)nc5c3F)N3C[C@@]5(F)CC[C@H](N5)[C@H]3CC4)c12 [Example 1-1, 4-((5aR,6S,9S)-1,9-difluoro-12-(((2R,7aS)-2-fluorotetrahydro-1H-pyrrolizin-7a(5H)-yl)methoxy)-4,5,5a,6,7,8,9,10-octahydro-3,10a,11,13,14-pentaaza-6,9-methanonaphtho[1,8-ab]heptalen-2-yl)-5-ethynyl-6-fluoronaphthalen-2-ol]	2.68 nM	38.2 nM	4.93 nM	3.27 nM
C#Cc1c(F)ccc2cc(N)cc(-c3nc4c5c(nc(OC[C@@]67CCCN6C[C@H](F)C7)nc5c3F)N3C[C@@]5(F)CC[C@](F)(N5)[C@H]3CCC4)c12 [Example 4-2, 5-ethynyl-6-fluoro-4-((6aR,7R,10S)-1,7,10-trifluoro-13-(((2R,7aS)-2-fluorotetrahydro-1H-pyrrolizin-7a(5H)-yl)methoxy)-5,6,6a,7,8,9,10,11-octahydro-4H-3,11a,12,14,15-pentaaza-7,10-methanocyclohepta[4,5]cycloocta[1,2,3-de]naphthalen-2-yl)naphthalen-2-amine]	2.89 nM	20 nM	3.04 nM	
C#Cc1c(F)ccc2cc(O)cc(-c3nc4c5c(nc(OCC67CCCN6CCC7)nc5c3F)N3C[C@@]5(F)CC[C@](F)(N5)[C@H]3CCC4)c12 [Example 4-5, 5-ethynyl-6-fluoro-4-((6aR,7R,10S)-1,7,10-trifluoro-13-((tetrahydro-1H-pyrrolizin-7a(5H)-yl)methoxy)-5,6,6a,7,8,9,10,11-octahydro-4H-3,11a,12,14,15-pentaaza-7,10-methanocyclohepta[4,5]cycloocta[1,2,3-de]naphthalen-2-yl)naphthalen-2-ol]	6.47 nM	10.1 nM		0.397 nM
N#Cc1c(F)ccc2cc(O)cc(-c3nc4c5c(nc(OCC67CCCN6CCC7)nc5c3F)N3C[C@@]5(F)CC[C@](F)(N5)[C@H]3CCC4)c12 [Example 4-9, 2-fluoro-6-hydroxy-8-((6aR,7R,10S)-1,7,10-trifluoro-13-((tetrahydro-1H-pyrrolizin-7a(5H)-yl)methoxy)-5,6,6a,7,8,9,10,11-octahydro-4H-3,11a,12,14,15-pentaaza-7,10-methanocyclohepta[4,5]cycloocta[1,2,3-de]naphthalen-2-yl)-1-naphthonitrile]	13.2 nM	323 nM		6.08 nM
C#Cc1c(F)ccc2c(F)c(N)cc(-c3nc4c5c(nc(OCC67CCCN6CCC7)nc5c3F)N3C[C@@]5(F)CC[C@](F)(N5)[C@H]3CCC4)c12 [Example 4-18, 5-ethynyl-1,6-difluoro-4-((6aR,7R,10S)-1,7,10-trifluoro-13-((tetrahydro-1H-pyrrolizin-7a(5H)-yl)methoxy)-5,6,6a,7,8,9,10,11-octahydro-4H-3,11a,12,14,15-pentaaza-7,10-methanocyclohepta[4,5]cycloocta[1,2,3-de]naphthalen-2-yl)naphthalen-2-amine]	13.3 nM	388 nM		22.3 nM
Oc1cc(-c2nc3c4c(nc(OCC56CCCN5CCC6)nc4c2F)N2C[C@@]4(F)CC[C@](F)(N4)[C@H]2CCC3)c2c(F)c(F)ccc2c1 [Example 4-22, 5,6-difluoro-4-[(4S,7R,8R)-4,7,15-trifluoro-18-(1,2,3,5,6,7-hexahydropyrrolizin-8-ylmethoxy)-2,13,17,19,21-pentazapentacyclo[10.7.1.14,7.02,8.016,20]henicosa-1(19),12(20),13,15,17-pentaen-14-yl]naphthalen-2-ol]	4.1 nM	83.4 nM		2.03 nM
C#Cc1c(F)ccc2cccc(-c3nc4c5c(nc(OCC67CCCN6CCC7)nc5c3F)N3C[C@@]5(F)CC[C@](F)(N5)[C@@H]3[C@@H](C)C4)c12 [Example 4-31, (5S,5aS,6R,9S)-2-(8-ethynyl-7-fluoronaphthalen-1-yl)-1,6,9-trifluoro-5-methyl-12-((tetrahydro-1H-pyrrolizin-7a(5H)-yl)methoxy)-4,5,5a,6,7,8,9,10-octahydro-3,10a,11,13,14-pentaaza-6,9-methanonaphtho[1,8-ab]heptalene]	1.36 nM	38.1 nM		2.19 nM
C#Cc1c(F)c(F)cc2cc(O)cc(-c3nc4c5c(nc(OCC67CCCN6CCC7)nc5c3F)N3C[C@@]5(F)CC[C@](F)(N5)[C@@H]3[C@@H](C)C4)c12 [Example 4-33, 5-ethynyl-6,7-difluoro-4-((5S,5aS,6R,9S)-1,6,9-trifluoro-5-methyl-12-((tetrahydro-1H-pyrrolizin-7a(5H)-yl)methoxy)-4,5,5a,6,7,8,9,10-octahydro-3,10a,11,13,14-pentaaza-6,9-methanonaphtho[1,8-ab]heptalen-2-yl)naphthalen-2-ol]	8.68 nM	12.4 nM		0.286 nM
C#Cc1c(F)ccc2cc(N)cc(-c3nc4c5c(nc(OC[C@@]67CCCN6C[C@H](F)C7)nc5c3F)N3C[C@@]5(F)CC[C@H](N5)[C@@H]3[C@@H](C)[C@H]4C)c12 [Example 4-37, 4-((4R,5S,5aS,6S,9S)-1,9-difluoro-12-(((2R,7aS)-2-fluorotetrahydro-1H-pyrrolizin-7a(5H)-yl)methoxy)-4,5-dimethyl-4,5,5a,6,7,8,9,10-octahydro-3,10a,11,13,14-pentaaza-6,9-methanonaphtho[1,8-ab]heptalen-2-yl)-5-ethynyl-6-fluoronaphthalen-2-amine]		4.65 nM	0.475 nM	0.153 nM
Nc1cc(-c2nc3c4c(nc(OCC56CCCN5CCC6)nc4c2F)N2C[C@@]4(F)CC[C@](F)(N4)[C@H]2CCC3)c2c(Cl)c(F)ccc2c1 [Example 5-2, 5-chloro-6-fluoro-4-((6aR,7R,10S)-1,7,10-trifluoro-13-((tetrahydro-1H-pyrrolizin-7a(5H)-yl)methoxy)-5,6,6a,7,8,9,10,11-octahydro-4H-3,11a,12,14,15-pentaaza-7,10-methanocyclohepta[4,5]cycloocta[1,2,3-de]naphthalen-2-yl)naphthalen-2-amine]	4.4 nM	338 nM		17.7 nM
CCc1c(F)ccc2cc(N)cc(-c3nc4c5c(nc(OCC67CCCN6CCC7)nc5c3F)N3C[C@@]5(F)CC[C@](F)(N5)[C@H]3CCC4)c12 [Example 6-2, 5-ethyl-6-fluoro-4-((6aR,7R,10S)-1,7,10-trifluoro-13-((tetrahydro-1H-pyrrolizin-7a(5H)-yl)methoxy)-5,6,6a,7,8,9,10,11-octahydro-4H-3,11a,12,14,15-pentaaza-7,10-methanocyclohepta[4,5]cycloocta[1,2,3-de]naphthalen-2-yl)naphthalen-2-amine]	6.48 nM	456 nM		22.6 nM
CCc1c(F)ccc2cc(O)cc(-c3nc4c5c(nc(OCC67CCCN6CCC7)nc5c3F)N3C[C@@]5(F)CC[C@](F)(N5)[C@@H]3[C@@H](C)C4)c12 [Example 6-3, 5-ethyl-6-fluoro-4-((8S,8aS,9R,12S)-4,9,12-trifluoro-8-methyl-2-((tetrahydro-1H-pyrrolizin-7a(5H)-yl)methoxy)-7,8,8a,9,10,11,12,13-octahydro-1,3,6,13a,14-pentaaza-9,12-methanonaphtho[1,8-ab]heptalen-5-yl)naphthalen-2-ol]	6.62 nM	20 nM		0.513 nM
CCc1c(F)ccc2cc(N)cc(-c3nc4c5c(nc(OCC67CCCN6CCC7)nc5c3F)N3C[C@@]5(F)CC[C@](F)(N5)[C@@H]3[C@@H](C)C4)c12 [Example 6-4, 5-ethyl-6-fluoro-4-((8S,8aS,9R,12S)-4,9,12-trifluoro-8-methyl-2-((tetrahydro-1H-pyrrolizin-7a(5H)-yl)methoxy)-7,8,8a,9,10,11,12,13-octahydro-1,3,6,13a,14-pentaaza-9,12-methanonaphtho[1,8-ab]heptalen-5-yl)naphthalen-2-amine]	8.24 nM	197 nM		12.8 nM
